Experimental data from patent US20200308192A1, “NOVEL THIAZOLO[5,4-D]PYRIMIDINE DERIVATIVES AS INVERSE AGONISTS OF A2A ADENOSINE RECEPTORS” (Universita degli Studi di Ferrara, priority 2016, published 2020).

Tested on: breast cancer cells MRMT-1
Experiment: Cell proliferation assay (DELFIA BrdU)
Format: cell-based
Settings: MRMT-1, CGS 21680 100 nM, 48 hours
Text: For the experiments of cellular proliferation, the DELFIA® kit was used and a multimode plate reader Ensight® from PerkinElmer. The DELFIA® (dissociation-enhanced lanthanide fluorescence immunoassay) assay is based on Time-Resolved Fluorescence (TRF) and on the incorporation of the 5-bromo-2-deoxyuridine (BrdU) in the DNA filaments recently synthesised by the proliferating cells seeded on microplates. The incorporated BrdU is detected by using a monoclonal antibody conjugated with europium, a long-lived chelated lanthanide, and the fluorescence measured is proportional to the synthesis of DNA in the cells population present in each well. The MRMT-1 cells, breast cancer cells, were pre-treated with some of the antagonists under evaluation at the concentration of 100 nM (compounds 1, 5, 6, 7, 10 of the present invention) for 30 minutes, then stimulated with CGS 21680 100 nM and after 30 minutes the solution of BrdU (10 μl/well) was added. At the end of the incubation period of 48 hours 100 μl/well of Anti-BrdU-Eu (0.5 μg/ml) were added and the cells were incubated for 120 minutes at room temperature. After 4 washings, 200 μl of DELFIA® stimulator were added at room temperature for 15 minutes and the Eu-fluorescence was detected by means of the Ensight® reader from Perkin Elmer (Perkin Elmer, Milan, Italy).

CCNC(=O)[C@H]1O[C@@H](n2cnc3c(N)nc(NCCc4ccc(CCC(=O)O)cc4)nc32)[C@H](O)[C@@H]1O [CGS 21680, reference compound]
Effect on proliferation of cancer cells: able to increase the proliferation of the cancer cells
